Measurements reported in US20240254118A1, “PRMT5 INHIBITORS AND USES THEREOF” (Gilead Sciences, Inc., priority 2022, published 2024).

Columns and labels:
[1] = test system: SDMA signal (PRMT5 inhibition) in HCT116 MTAP-deleted cells; test: Symmetric di-methyl arginine image-based high content screen assay (SDMA assay), HCT116 MTAP-deleted; format: cell-based; details: SDMA assay; for EC50: Homo sapiens, HCT-116, 72 h, 3 days of treatment, cell line not given, taken as HCT116 MTAP-deleted, read-out: EC50 (SDMA assay); for EC50 selectivity (SDMA assay): taken as HCT116 WT versus MTAP-deleted
How it was run: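 Read-out: per-cell mean SDMA immunofluorescence (Alexa Fluor 488 secondary), cells segmented by DAPI on a high-content imager. Compound exposure in HCT116 MTAP-deleted cells lasted until fixation on Day 3; overnight 4° C primary anti-SDMA antibody staining.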

[2] = test system: HCT116 MTAP-deleted cells; test: Cell viability assay (CellTiter-Glo, 7 days), HCT116 MTAP-deleted; details: Homo sapiens, HCT-116, 168 h

| EC50 [1] | EC50 selectivity (SDMA assay) [1] | SMILES | CC50 [2] |
| --- | --- | --- | --- |
| < 1 nM | 130 | Cc1cc(CN(C(=O)c2ccc3nc(N)c4cnn(C)c4c3c2)N(C)C(=O)C2CC2)c(F)cc1-c1cnn(C(F)F)c1 [Example 318, 4-amino-N′-(cyclopropanecarbonyl)-N-(4-(1-(difluoromethyl)-1H-pyrazol-4-yl)-2-fluoro-5-methylbenzyl)-N′,1-dimethyl-1H-pyrazolo[4,3-c]quinoline-8-carbohydrazide] | < 100 nM |
| < 1 nM | 85 | CC(=O)N(C)N(Cc1ccc2nc(C)sc2c1)C(=O)c1ccc2nc(N)c3cnn(C)c3c2c1 [Example 321, N′-acetyl-4-amino-N′,1-dimethyl-N-((2-methylbenzo[d]thiazol-6-yl)methyl)-1H-pyrazolo[4,3-c]quinoline-8-carbohydrazide] | < 100 nM |
| < 1 nM | 34 | Cn1ncc2c(N)nc3ccc(C(=O)N(Cc4ccc(C(F)(F)F)cc4F)n4cnc5ccccc54)cc3c21 [Example 322, 4-amino-N-(1H-benzo[d]imidazol-1-yl)-N-(2-fluoro-4-(trifluoromethyl)benzyl)-1-methyl-1H-pyrazolo[4,3-c]quinoline-8-carboxamide] | < 100 nM |
| 1 to 5 nM | 44 | CN(C(=O)C1CC1)N(Cc1ccc2nc(C(F)(F)F)sc2c1)C(=O)c1ccc2nc(N)c3cnn(C)c3c2c1 [Example 323, 4-amino-N′-(cyclopropanecarbonyl)-N′,1-dimethyl-N-((2-(trifluoromethyl)benzo[d]thiazol-6-yl)methyl)-1H-pyrazolo[4,3-c]quinoline-8-carbohydrazide] | < 100 nM |
| < 1 nM | 111 | CN(C(=O)C1CC1)N(Cc1ccc(C(F)F)cc1F)C(=O)c1ccc2nc(N)c3cnn(C)c3c2c1 [Example 324, 4-amino-N′-(cyclopropanecarbonyl)-N-(4-(difluoromethyl)-2-fluorobenzyl)-N′,1-dimethyl-1H-pyrazolo[4,3-c]quinoline-8-carbohydrazide] | < 100 nM |
| < 1 nM | 103 | [2H]C([2H])([2H])N(C(=O)C1CC1)N(Cc1ccc(C(F)(F)F)cn1)C(=O)c1ccc2nc(N)c3cnn(C)c3c2c1 [Example 325, 4-amino-N′-(cyclopropanecarbonyl)-1-methyl-N′-(methyl-d3)-N-((5-(trifluoromethyl)pyridin-2-yl)methyl)-1H-pyrazolo[4,3-c]quinoline-8-carbohydrazide] | < 100 nM |
| < 1 nM | 114 | [2H]C([2H])([2H])N(C(=O)C1CC1)N(Cc1ccc(C(F)(F)F)cn1)C(=O)c1ccc2nc(N)c3cnn(C([2H])([2H])[2H])c3c2c1 [Example 326, 4-amino-N′-(cyclopropanecarbonyl)-N′,1-bis(methyl-d3)-N-((5-(trifluoromethyl)pyridin-2-yl)methyl)-1H-pyrazolo[4,3-c]quinoline-8-carbohydrazide] | < 100 nM |
| 1 to 5 nM | 549 | CC(=O)N(C)N(Cc1ccc2scnc2c1)C(=O)c1ccc2nc(N)c3cnn(C)c3c2c1 [Example 327, N′-acetyl-4-amino-N-(benzo[d]thiazol-5-ylmethyl)-N′,1-dimethyl-1H-pyrazolo[4,3-c]quinoline-8-carbohydrazide] | < 100 nM |
| 1 to 5 nM | 143 | CC(=O)N(C)N(Cc1ccc2scnc2c1)C(=O)c1cc2c(cc1F)nc(N)c1cnn(C)c12 [Example 328, N′-acetyl-4-amino-N-(benzo[d]thiazol-5-ylmethyl)-7-fluoro-N′,1-dimethyl-1H-pyrazolo[4,3-c]quinoline-8-carbohydrazide] | < 100 nM |
| < 1 nM | 134 | CC(=O)N(C)N(Cc1ccc(Cl)cc1Cl)C(=O)c1ccc2nc(N)c3cnn(C)c3c2c1 [Example 329, N′-acetyl-4-amino-N-(2,4-dichlorobenzyl)-N′,1-dimethyl-1H-pyrazolo[4,3-c]quinoline-8-carbohydrazide] | < 100 nM |
| < 1 nM | 225 | Cn1ncc2c(N)nc3ccc(C(=O)N(Cc4ccc(C(F)(F)F)cn4)NC(=O)OC4CCC4)cc3c21 [Example 330, cyclobutyl 2-(4-amino-1-methyl-1H-pyrazolo[4,3-c]quinoline-8-carbonyl)-2-((5-(trifluoromethyl)pyridin-2-yl)methyl)hydrazine-1-carboxylate] | < 100 nM |
| < 1 nM | 37 | Cn1ncc2c(N)nc3cc(F)c(C(=O)N(Cc4ccc(C(F)(F)F)cn4)NC(=O)OC4CCC4)cc3c21 [Example 331, cyclobutyl 2-(4-amino-7-fluoro-1-methyl-1H-pyrazolo[4,3-c]quinoline-8-carbonyl)-2-((5-(trifluoromethyl)pyridin-2-yl)methyl)hydrazine-1-carboxylate] | < 100 nM |
| < 1 nM | 308 | Cn1ncc2c(N)nc3ccc(C(=O)N(Cc4ccc(C(F)(F)F)cn4)NC(=O)C45CC(C4)C5)cc3c21 [Example 332, 4-amino-N′-(bicyclo[1.1.1]pentane-1-carbonyl)-1-methyl-N-((5-(trifluoromethyl)pyridin-2-yl)methyl)-1H-pyrazolo[4,3-c]quinoline-8-carbohydrazide] | < 100 nM |
| < 1 nM | 317 | Cn1ncc2c(N)nc3cc(F)c(C(=O)N(Cc4ccc(C(F)(F)F)cn4)NC(=O)C45CC(C4)C5)cc3c21 [Example 333, 4-amino-N′-(bicyclo[1.1.1]pentane-1-carbonyl)-7-fluoro-1-methyl-N-((5-(trifluoromethyl)pyridin-2-yl)methyl)-1H-pyrazolo[4,3-c]quinoline-8-carbohydrazide] | < 100 nM |
| 1 to 5 nM | 178 | CC(=O)N(C)N(Cc1ccc2oc(C)nc2c1)C(=O)c1ccc2nc(N)c3cnn(C)c3c2c1 [Example 334, N′-acetyl-4-amino-N′,1-dimethyl-N-((2-methylbenzo[d]oxazol-5-yl)methyl)-1H-pyrazolo[4,3-c]quinoline-8-carbohydrazide] | 100 to 1000 nM |
| 1 to 5 nM | 272 | CC(=O)N(C)N(Cc1ccc2nc(C)oc2c1)C(=O)c1ccc2nc(N)c3cnn(C)c3c2c1 [Example 335, N′-acetyl-4-amino-N′,1-dimethyl-N-((2-methylbenzo[d]oxazol-6-yl)methyl)-1H-pyrazolo[4,3-c]quinoline-8-carbohydrazide] | < 100 nM |
| 1 to 5 nM | 67 | CC(=O)N(C)N(Cc1ccc2nc(C(F)(F)F)sc2c1)C(=O)c1ccc2nc(N)c3cnn(C)c3c2c1 [Example 337, N′-acetyl-4-amino-N′,1-dimethyl-N-((2-(trifluoromethyl)benzo[d]thiazol-6-yl)methyl)-1H-pyrazolo[4,3-c]quinoline-8-carbohydrazide] | < 100 nM |
| < 1 nM | 373 | CN(C(=O)C12CC(C1)C2)N(Cc1ccc2ncsc2c1)C(=O)c1ccc2nc(N)c3cnn(C)c3c2c1 [Example 338, 4-amino-N-(benzo[d]thiazol-6-ylmethyl)-N′-(bicyclo[1.1.1]pentane-1-carbonyl)-N′,1-dimethyl-1H-pyrazolo[4,3-c]quinoline-8-carbohydrazideide] | < 100 nM |
| 1 to 5 nM | 280 | CN(C(=O)C1(C(F)F)CC1)N(Cc1ccc(C(F)(F)F)cn1)C(=O)c1ccc2nc(N)c3cnn(C)c3c2c1 [Example 339, 4-amino-N′-(1-(difluoromethyl)cyclopropane-1-carbonyl)-N′,1-dimethyl-N-((5-(trifluoromethyl)pyridin-2-yl)methyl)-1H-pyrazolo[4,3-c]quinoline-8-carbohydrazide] | 100 to 1000 nM |
| < 1 nM | 50 | CC(=O)N(C1COC1)N(Cc1ccc(C(F)(F)F)cc1F)C(=O)c1ccc2nc(N)c3cnn(C)c3c2c1 [Example 340, N′-acetyl-4-amino-N-(2-fluoro-4-(trifluoromethyl)benzyl)-1-methyl-N′-(oxetan-3-yl)-1H-pyrazolo[4,3-c]quinoline-8-carbohydrazide] | < 100 nM |
| 1 to 5 nM | 188 | CC(=O)N(CC1CC1)N(Cc1ccc(C(F)(F)F)cn1)C(=O)c1ccc2nc(N)c3cnn(C)c3c2c1 [Example 341, N′-acetyl-4-amino-N′-(cyclopropylmethyl)-1-methyl-N-((5-(trifluoromethyl)pyridin-2-yl)methyl)-1H-pyrazolo[4,3-c]quinoline-8-carbohydrazide] | < 100 nM |
| 1 to 5 nM | 30 | CN(C(=O)C(F)(F)C1CC1)N(Cc1ccc(C(F)(F)F)cn1)C(=O)c1ccc2nc(N)c3cnn(C)c3c2c1 [Example 342, 4-amino-N′-(2-cyclopropyl-2,2-difluoroacetyl)-N′,1-dimethyl-N-((5-(trifluoromethyl)pyridin-2-yl)methyl)-1H-pyrazolo[4,3-c]quinoline-8-carbohydrazide] | < 100 nM |

| SMILES | EC50 [1] | EC50 selectivity (SDMA assay) [1] | CC50 [2] |
| --- | --- | --- | --- |
| Cn1ncc2c(N)nc3ccc(C(=O)N(Cc4ccc(C(F)(F)F)cn4)N4CCC5(CC5)OC4=O)cc3c21 [Example 336, 4-amino-1-methyl-N-(5-oxo-4-oxa-6-azaspiro[2.5]octan-6-yl)-N-((5-(trifluoromethyl)pyridin-2-yl)methyl)-1H-pyrazolo[4,3-c]quinoline-8-carboxamide] | 1 to 5 nM | 94 | < 100 nM |
